Test results from patent US12018267B2, “Plants having increased tolerance to herbicides” (BASF SE, priority 2015, dated 2024).
Where “and” joins values, the source holds several entries; their conditions need not be identical. Equal entries are not always repeated.

Assays:
Type in all cases: in vivo, Oryza sativa
[1] = tested on: wild type rice materials (O. sativa M2 Volano); assay: Greenhouse foliar application, crop injury on wild type rice materials (Tables E10-1, E10-2); conditions: wild type rice (OsCESA WT)
Excerpt: (§1) Oryza sativa M2 Volano is a cellulose biosynthesis inhibitor susceptible rice risotto population that was subjected to sodium azide seed mutagenesis but was not tilled nor selected for CESA mutations. O. sativa Volano-M3-CESA1 and CESA3 mutants were selected from a subpopulation of O. sativa M2 Volano by sequencing CESA gene sequences in M2 plants and maintaining (producing seed through selfing) those individuals containing key mutations in these genes. The tolerance of the M3 CESA1 and CESA3 mutants was assessed using 6-(1-fluorocyclopentyl)-N2-(2,3,5,6-tetrafluorophenyl)-1,3,5-triazine-2,4-diamine, together with 1.0% DASH® EC adjuvant (BASF). The tolerance of M4 CESA1 and CESA3 mutants was assessed using 6-cyclopentyl-N4-(2,3,4,5,6-pentafluorophenyl)-1,3,5-triazine-2,4-diamine, together with 1.0% DASH® EC adjuvant (BASF).
(§2) M3 seed, which were harvested from tilled and selected individuals containing mutations in the CESA1 and CESA3 genes, were grown in the greenhouse under natural light conditions supplemented with 400 W sodium halide lamps under a 16 hr day length. Day/night temperatures were 26 and 20° C., respectively. The number of M3 plants from each line varied between 2 and 16, depending on seed availability and germination. A non-selective CBI, azine 6-(1-fluorocyclopentyl)-N2-(2,3,5,6-tetrafluorophenyl)-1,3,5-triazine-2,4-diamine, formulated with 1.0% DASH in a water volume of 375 L/ha was applied early post-emergent (one to two leaf stage) at a rate of 250 g ai/ha to M3 CESA1 and CESA3 mutant rice plants growing in soil in the greenhouse. Only plants originating from lines having more than four seeds were subjected to herbicide treatment. CESA mutant lines with four or fewer seeds were selfed for an additional generation and then tested at the M4 generation with 6-cyclopentyl-N4-(2,3,4,5,6-pentafluorophenyl)-1,3,5-triazine-2,4-diamine. M4 plants were grown under similar conditions as M3 plants and treated with 250 g ai/ha or 500 g ai/ha of 6-cyclopentyl-N4-(2,3,4,5,6-pentafluorophenyl)-1,3,5-triazine-2,4-diamine. Previous kill curve greenhouse tests had identified that a rate of 250 g ai/ha of 6-(1-fluorocyclopentyl)-N2-(2,3,5,6-tetrafluorophenyl)-1,3,5-triazine-2,4-diamine and a rate of 250 g ai/ha 6-cyclopentyl-N4-(2,3,4,5,6-pentafluorophenyl)-1,3,5-triazine-2,4-diamine, both with 1.0% DASH, were sufficient doses to kill O. sativa M2 Volano check plants. […] Plants were assessed for crop injury, using a scale from 0% injury to 100% injury, at 11 and 21 days after treatment (DAT) for M3 plants applied with 6-(1-fluorocyclopentyl)-N2-(2,3,5,6-tetrafluorophenyl)-1,3,5-triazine-2,4-diamine and 36 DAT for M4 plants applied with 6-cyclopentyl-N4-(2,3,4,5,6-pentafluorophenyl)-1,3,5-triazine-2,4-diamine. Plants without any symptoms were recorded as “0%” injury. Increasing levels of reduced leaf mass and reduced stalk stiffness, with respect to the untreated control plants, were recorded in the range of “1 to 49%” injury. Increasing levels of leaf abnormalities and leaf necrosis, along with increased levels of lodging, relative to the untreated control plants, were recorded in the range of “50 to 85%” injury. Dead or dying plants with necrosis of the apex and severe lodging were recorded between “86-100%”. Data on individual plants was assessed and recorded due to the low number of individuals per line and the fact that the CESA mutations in the M2 generation were heterozygous and therefore segregating at the M3 and M4 generations. […]

[2] = tested on: O. sativa M2 Volano check plants; assay: Previous kill curve greenhouse tests on rice check plants; conditions: with 1.0% DASH
Protocol: M3 seed, which were harvested from tilled and selected individuals containing mutations in the CESA1 and CESA3 genes, were grown in the greenhouse under natural light conditions supplemented with 400 W sodium halide lamps under a 16 hr day length. Day/night temperatures were 26 and 20° C., respectively. The number of M3 plants from each line varied between 2 and 16, depending on seed availability and germination. […] Plants were assessed for crop injury, using a scale from 0% injury to 100% injury, at 11 and 21 days after treatment (DAT) for M3 plants applied with 6-(1-fluorocyclopentyl)-N2-(2,3,5,6-tetrafluorophenyl)-1,3,5-triazine-2,4-diamine and 36 DAT for M4 plants applied with 6-cyclopentyl-N4-(2,3,4,5,6-pentafluorophenyl)-1,3,5-triazine-2,4-diamine. Plants without any symptoms were recorded as “0%” injury. Increasing levels of reduced leaf mass and reduced stalk stiffness, with respect to the untreated control plants, were recorded in the range of “1 to 49%” injury. Increasing levels of leaf abnormalities and leaf necrosis, along with increased levels of lodging, relative to the untreated control plants, were recorded in the range of “50 to 85%” injury. Dead or dying plants with necrosis of the apex and severe lodging were recorded between “86-100%”. […]

[3] = tested on: Rice M4 CESA1 and CESA3 mutants; assay: Greenhouse foliar application, crop injury on tilled Rice M4 generation cellulose synthase mutants (Table E10-2)
Excerpt: as §1, §2

[4] = Rice M4 OsCesA1 S827N (SEQ ID 51), parental plant Hom, 250 g ai/ha
[5] = Rice M4 OsCesA1 T952I (SEQ ID 51), parental plant Het, 500 g ai/ha

SMILES | Crop Injury Assessment (%) at 20 DAT ([1]; foliar application 250 g ai/ha, 20 DAT) [%] | rate sufficient to kill O. sativa M2 Volano check plants [2] [g ai/ha] | Crop injury assessment (%) at 23 DAT [3, 4] [%] | Crop injury assessment (%) at 36 DAT [3, 4] [%] | Crop injury assessment (%) at 23 DAT ([3]; Rice M4 OsCesA1 T952I (SEQ ID 51), parental plant Het, 250 g ai/ha) [%] | Crop injury assessment (%) at 23 DAT [3, 5] [%] | Crop injury assessment (%) at 36 DAT [3, 5] [%] | Crop injury assessment (%) at 23 DAT ([1]; foliar application 250 g ai/ha) | Crop injury assessment (%) at 36 DAT ([1]; foliar application 250 g ai/ha) | Crop injury assessment (%) at 23 DAT ([1]; foliar application 500 g ai/ha) | Crop injury assessment (%) at 36 DAT ([1]; foliar application 500 g ai/ha) [%]
Nc1nc(Nc2c(F)c(F)cc(F)c2F)nc(C2(F)CCCC2)n1 [6-(1-fluorocyclopentyl)-N2-(2,3,5,6-tetrafluorophenyl)-1,3,5-triazine-2,4-diamine] | 100 | 250 |  |  |  |  |  |  |  |  | 
Nc1nc(Nc2c(F)c(F)c(F)c(F)c2F)nc(C2CCCC2)n1 [6-cyclopentyl-N4-(2,3,4,5,6-pentafluorophenyl)-1,3,5-triazine-2,4-diamine] |  | 250 | 0 | 0 | 0 | 10 | 10 | 75% and 65% | 70% and 95% | 98% and 95% | 100
